Measurements published in patent US20230263817A1, “HIGH DOSE NICOTINAMIDE ADENINE DINUCLEOTIDE (NAD) PRECURSOR REGIMENS FOR REDUCTION OF INFLAMMATION IN HUMAN PATIENTS WITH PREEXISTING INFLAMMATION” (University of Washington, priority 2021, published 2023).
“Also recorded” adds a separate entry of the source.

Experiments:
[1] = test system: healthy PBMCs; experiment: Seahorse Mito Stress Test (OCR) of healthy PBMCs after 4-hour in vitro treatment; format: cell-based, human
Protocol: (§1) PBMC and Monocyte isolation. 30-60 ml of fasting blood was collected into EDTA-containing Vacutainers (BD Mfr #364606). Blood then was diluted (1:1) with RPMI medium (Corning; Cat #17-105-CV) and applied to Histopaque gradient medium (Sigma-Aldrich; Cat #10771) using SepMate-50 (STEMCELL Technologies), and centrifuged at 1200 g for 10 minutes. Top layer contained the enriched peripheral blood mononuclear cells (PBMCs) which were collected and followed by centrifugation at 300 g for 10 minutes. The pellet was resuspended with ACK lysis buffer (Gibco; Cat. A1049201) and incubated at room temperature for 5 minutes to remove residual red blood cells. Next, the enriched PBMCs were washed twice with RPMI medium. All PBMC samples were subjected to the baseline Seahorse Mito Stress Test. When available, the remaining cells were used for cytokine mRNA quantitative PCR and in vitro assays. For monocyte isolation, a magnetic bead-based negative-selection monocyte isolation kit (Miltenyi Biotec, 130-096-537) was used per the manufacturer's instructions. Briefly, antibody-conjugated magnetic bead solution was added to isolated PBMCs resuspended in RPMI containing 0.5% BSA and incubated for 20 minutes at 4° C., followed by magnetic column binding and elution. The procedure was repeated once to improve the purity of monocytes. The monocytes were washed once with RPMI prior to subsequent experiments.
Seahorse Mito Stress Test. Oxygen consumption rate (OCR) of freshly isolated PBMCs was assessed using a Seahorse XFe24 analyzer (Agilent Technologies). Briefly, purified PBMCs were resuspended in Seahorse base medium (Agilent Technologies, supplemented with 1 mM pyruvate, 2 mM glutamine, and 10 mM glucose, pH 7.4), and added 10^6 cells/well at equal volume of 500 μL in a Seahorse 24-well plate. The cells were maintained in a non-CO2 incubator and allowed to settle for 30 minutes at 37° C. Next, the plate was centrifuged at 40 g for 10 minutes at room temperature without application of the brake to help cells attach to the bottom of the plate. Drugs used in the assay: 5 μM oligomycin A (Sigma-Aldrich; Cat. 75351), 3 μM Trifluoromethoxy carbonylcyanide phenylhydrazone (FCCP) (Sigma-Aldrich; Cat. C2920), 1 μM Rotenone (Sigma-Aldrich; Cat. […]), 1 μM Antimycin A (Sigma-Aldrich; Cat. […]), 0.5 mM TMPD (Sigma-Aldrich; Cat. T7394) and 10 mM Ascorbate (Sigma-Aldrich; Cat. 95209).
(§2) PBMC and Monocyte Culture. Freshly isolated PBMCs or Monocytes from healthy or HF subjects were resuspended with RPMI medium plus 10% heat inactivated FBS. PBMCs (10^6 cells/well) were seeded in Seahorse 24-well plates and incubated at 37° C. in CO2 incubator with various proinflammatory triggers (Vehicle, MitoDAMP, LPS) and compounds (NR, MCC 950, MitoTempo, or LMT-28). After 4 hours incubation, the plate was centrifuged at 40 g for 10 minutes at room temperature without application of the brake to help cells attach to the bottom of the plate. The cells were washed twice and then brought up to 500 μL using Seahorse base medium (Agilent Technologies, supplemented with 1 mM pyruvate, 2 mM glutamine, and 10 mM glucose, pH 7.4).

[2] = test system: NLRP3 and pro-inflammatory cytokine (IL1β, IL6, IL18, TNFα) mRNA in healthy PBMCs; experiment: RT-qPCR of NLRP3 and pro-inflammatory cytokine mRNA in healthy PBMCs treated in vitro; format: cell-based, human
Protocol: as §2
IL6 ELISA. Isolated PBMCs (4×10^6 cells per sample) from healthy or HF participants were resuspended in RPMI medium containing 10% heat-inactivated FBS and treated with various proinflammatory triggers (Vehicle, MitoDAMP, LPS) and compounds (NR, MCC 950, MitoTempo, or LMT-28) to final PBMC concentrations of 10×10^6 cells per mL. See below for detailed descriptions of the reagents. The samples were incubated in Eppendorf tubes at 37° C. in a 5% CO2 incubator with caps open for times designated in the brief description of drawings. The cultured PBMC samples were centrifuged at 8,000 RPM at room temperature. The supernatant was used for ELISA per the manufacture protocol using R&D Systems human IL6 kit (Cat #DY206-05). The cell pellets were stored in −80° C.
RNA Isolation and Quantitative PCR analysis. Total RNA was isolated from frozen PBMC pellets using Trizol (Invitrogen) per the manufacturer's instructions, and cDNA was synthesized using iScript™ Reverse Transcription Supermix (Bio-rad) per the manufacturer's instructions. Real-time PCR was performed in the Corbett rotor gene 6000 real-time PCR machine using iQ™ SYBR® Green Supermix (Bio-rad) and expression levels of the indicated genes were calculated using the ΔΔCt method.

[3] = test system: NLRP3 and proinflammatory cytokine gene expressions in HF PBMCs; experiment: RT-qPCR of NLRP3 and cytokine mRNA in Stage D HF PBMCs treated in vitro with NR; format: cell-based, human; details: 4-hour 1 mM NR vs vehicle
Protocol: as §2
IL6 ELISA. Isolated PBMCs (4×10^6 cells per sample) from healthy or HF participants were resuspended in RPMI medium containing 10% heat-inactivated FBS and treated with various proinflammatory triggers (Vehicle, MitoDAMP, LPS) and compounds (NR, MCC 950, MitoTempo, or LMT-28) to final PBMC concentrations of 10×10^6 cells per mL. See below for detailed descriptions of the reagents. […]
RNA Isolation and Quantitative PCR analysis. […] Real-time PCR was performed in the Corbett rotor gene 6000 real-time PCR machine using iQ™ SYBR® Green Supermix (Bio-rad) and expression levels of the indicated genes were calculated using the ΔΔCt method.

[4] = test system: PBMCs of heart failure patients; experiment: Seahorse OCR of HF PBMCs after 4-hour in vitro NR treatment; format: cell-based, human; details: HF PBMC, 4-hour 1 mM NR vs vehicle
Protocol: as §1, with “Briefly, antibody-conjugated magnetic bead solution was added to isolated PBMCs resuspended in RPMI containing 0.5% BSA and incubated for 20 minutes at 4° C., followed by magnetic column binding and elution. The procedure was repeated once to improve the purity of monocytes. The monocytes were washed once with RPMI prior to subsequent experiments.” left out
Seahorse Mito Stress Test. Oxygen consumption rate (OCR) of freshly isolated PBMCs was assessed using a Seahorse XFe24 analyzer (Agilent Technologies). […]

[5] = Randomized trial of NR in HFrEF: whole blood NR and NAD+ levels; format: in vivo, human
Protocol: At Week 0 (Randomization), participants underwent history, repeat 6MWD assessment and baseline transthoracic echocardiogram (FIG. 15). NR or matching placebo were started at the initial dose of 250 mg orally twice daily, then up-titrated by 250 mg twice daily each week to a final dose of 1000 mg twice daily by Week 3. Participants were continued on the 1000 mg twice daily dose until the final clinic visit on Week 12. Blood draws for study labs, including levels of NR and NAD were obtained at Weeks 0, 2, 4 and 12. Medications were dispensed at Weeks 0, 2, 4 and 8, with pill counts performed at Weeks 2, 4, 8 and 12. A telephone visit was performed at Week 6. The final echocardiogram and PBMC mitochondrial respiration assays were performed at Week 12. Study labs were performed by the UW Research Testing Service, except for NR and NAD+ assays, which were performed by the Pharmacokinetics Laboratory, Department of Pharmaceutics, UW School of Pharmacy. Procedures for blood collection and processing, as well as NR and NAD+ assay procedures, have been described previously (Airhart S E, et al., PLoS One. 2017, 12:e0186459).

[6] = healthy PBMC, 4-hour 1 mM NR vs vehicle, absence of MitoDAMP

## NC(=O)c1ccc[n+]([C@@H]2O[C@H](CO)[C@@H](O)[C@H]2O)c1 [NR, nicotinamide riboside]
[1]; [6]
  basal OCR: increased
  maximal OCR: increased
[1]; healthy PBMC, 4-hour MitoDAMP with 1 mM NR
  MitoDAMP-induced decline of maximal OCR: partially prevented
[1]; healthy PBMCs, 4-hour 10 ng/mL LPS with 1 mM NR
  maximal OCR: enhancing
[2]; 4-hour 10 ng/mL LPS with 1 mM NR relative to LPS alone
  proinflammatory cytokine gene expressions: reducing
[2]; 4-hour MitoDAMP with 1 mM NR relative to MitoDAMP only
  proinflammatory cytokine gene expressions: reduction
[3]
  reductions of NLRP3 and proinflammatory cytokine gene expressions: minimal
[4]
  basal OCR: increased
  maximal OCR: increased
[5]; NR group
  changes in whole blood NAD+ levels on-trial (Week 12-Week 0), Mean+SE: 30 ± 20 µM
[5]; NR group, Week 0 to Week 4, maintained through Week 12
  blood NAD+ levels during the up-titration period: dose-dependent increase
[5]; Week 4 visit, 1000 mg NR dose
  whole blood NAD+ levels at 4 h post-dose vs pre-NR dose: unchanged
  whole blood NR levels 4 h post-dose vs pre-dose: tended to increase; also recorded: rose significantly
[5]; clinically-stable HF patients, NR treatment
  whole blood NAD+ levels: doubled
[5]; human, whole blood, oral, 1000 mg twice daily, NR group, read-out: on-trial changes in whole blood NR levels (Week 12-Week 0), Mean±SE
  concentration at 12 weeks: 2 nM
[5]; trough, throughout the study
  blood NR level before the daily dose was administered: low and variable
